# Test results reported in PMC4032624 (Molecular cell, 2013).
# Legend:
# pT2609 and γH2Ax foci = assay: Confocal immunofluorescence of pT2609-DNA-PKcs and γH2Ax foci in U2OS cells; details: UNC0638 together with ETO, Pearson correlation coefficient, n=5
# γH2Ax = γH2Ax level by Western blot in U2OS cells; type: cell-based; details: UNC0638 with etoposide
# G9a/GLC = assay: H3K9me2 level in U2OS cells; type: cell-based; details: incubation with inhibitor vs solvent DMSO
smiles,measurement,setting,value
COc1cc2c(NC3CCN(C(C)C)CC3)nc(C3CCCCC3)nc2cc1OCCCN1CCCC1 [UNC0638],colocalization pattern of γH2Ax and pT2609 foci,pT2609 and γH2Ax foci,did not significantly alter
same,effect on etoposide-induced γH2Ax pattern,γH2Ax,not affected
same,H3K9me2 level,G9a/GLC,decreased
